Test results from patent EP0694547B1, “2-(2-amino-1,6-dihydro-6-oxo-purin-9-yl)methoxy-1,3-propanediol derivatives” (F. Hoffmann-La Roche AG, priority 1994, dated 1996).

What was measured:
[1] = format: physicochemical; details: pH 7
Protocol: Alternatively, the compound of the invention may be prepared using optically active reactants. When pure diastereomers of mono-L-valine ganciclovir are prepared the condensation step (d) is the preferred method of synthesis. However, if optically active reagents are being used it would be important to avoid the pH range above 6, as at the higher pH range interconversion of the free compound of Formula I occurs.

[2] = Determination of oral absorption (bioavailability) in the rat
Protocol: The following assay was used to determine the oral absorption (oral bioavailability) of the compound of Formula I (L-monovaline ester of ganciclovir) and of other ganciclovir amino acid esters, other ganciclovir esters and ethers examined for comparative purposes.
To measure the oral bioavailability of a compound first the plasma level of the compound in male rats was determined after a single oral (po) dose of the compound. […] For ganciclovir the single dose in each case, po and iv, is 10 mg/kg; for a prodrug ester (including the L-monovaline ester of ganciclovir) the single dose in each case, oral and iv, is a dose equimolar to 10 mg/kg of ganciclovir. From the two measurements following po and iv administration, the oral bioavailability of a compound was calculated by dividing the total area under the concentration vs. time curve following p.o. administration by the total area under the concentration vs. time curve following iv administration, appropriately corrected for dose, according to the equation: F(p.o.) (%) = [AUC(p.o.) /AUC(i.v.) ] x [Dose(i.v.) / Dose(p.o.) ] x 100 [formula]
The dose vehicle for oral and intravenous dosing consisted normal saline containing 2 % acetic acid. In both cases the compound concentration was equivalent to 4.0 mg/ml ganciclovir with a dose rate equivalent to 10 mg/kg (2.5 ml/kg) of ganciclovir. A 200 gm rat received 0.5 ml of the oral drug solution by gavage or via injection into the tail vein.
The rats were acclimatized to the laboratory environment for three days and fasted overnight before start of the experiment and until 4 hours after dosing. Blood was collected from 4 rats at each of the following times: 0 min (pre-dose), 5 min (iv only), 15 min, 30 min, 1 hr, 2 hr, 3 hr, 5 hr, 7 hr, 10 hr and 24 hr. The blood was immediately centrifuged to obtain the plasma and the plasma frozen at -20 °C until analysis.
Aliquots of plasma (0.50 ml) were mixed with 0.020 ml of internal standard (acyclovir, 15 µg/ml in 10 % methanol/water) and 3.0 ml of acetonitrile. The mixture was vortexed and the resulting precipitate was removed by centrifugation (4,000 g, 10 min). The supernatant was evaporated to dryness under nitrogen and reconstituted in 200 µl of HPLC mobile phase. Aliquots (0.05 ml) were analyzed by HPLC using a Keystone Hypersil BDS, 250 x 4.6 mm C 18 column. The mobile phase contained 2 % acetonitrile in 30 mM sodium phosphate buffer containing 5 mM heptane sulfonic acid, pH 2.0 and was pumped at 1.0 ml/min. Ganciclovir and internal standard were detected and measured by UV absorbance at 254 nm.

[3] = Determination of oral absorption (bioavailability) in the Cynomolgus monkey; format: in vivo, Male cynomolgus monkeys; details: oral gavage dose equimolar to 10 mg/kg ganciclovir, plasma ganciclovir
Protocol: Male cynomolgus monkeys weighing 5 to 7 kilos were used. The animals were fed monkey chow, fruit and water and maintained on a 12 hour light cycle. The tested compounds were formulated at a concentration equimolar to a 10 mg/ml solution of ganciclovir in saline. The oral formulation was administered by gavage at a rate of 1.0 ml/kg for a final dose equimolar to a 10 mg/kg dose of ganciclovir. The iv formulation of ganciclovir was formulated in saline containing 0.2% HCl at a concentration of 20 mg/ml and administered at a rate of 0.5 ml/kg.
The animals were fasted beginning the evening prior to dosing and until 4 hr after dosing. […] The blood samples were collected in heparinized syringes and the plasma was immediately isolated by centrifugation and frozen at -20 °C until analysis.
The bioavailability (F) is calculated according to the equation given in Example 9.

[4] = relative to acyclovir; cited from earlier work
[5] = in vivo, po; cited from earlier work

Compound: CC(C)[C@H](N)C(=O)OCC(CO)OCn1cnc2c(=O)nc(N)[nH]c21 (stereo partly drawn) [Formula I, 2-(2-amino-1,6-dihydro-6-oxo-purin-9-yl)methoxy-3-hydroxy-1-propanyl-L-valinate]
- half-life [1]: less than one

Compound: Nc1nc(O)c2ncn(COC(CO)CO)c2n1 [Ganciclovir, 2-(2-Amino-1,6-dihydro-6-oxo-purin-9-yl)-methoxy-1,3-propanediol]
- bioavailability at 24 h ([2]; rat, plasma, po, 10 mg/kg): 7.9%
- bioavailability [3]: 9.9%

Compound: Nc1nc2c(ncn2COC(COCc2ccccc2)COCc2ccccc2)c(=O)[nH]1 [G-dibenzyl ether]
- ORAL BIOAVAILABILITY (F %) ([2]; male rats, single po and iv dose equimolar to 10 mg/kg ganciclovir, plasma ganciclovir AUC 0-24 hr): non-detectable

Compound: NCC(=O)OCCOCn1cnc2c(=O)[nH]c(N)nc21 [glycyl ester of acyclovir]
- solubility greater than the solubility of acyclovir itself [4]: about 30 fold

Compound: CC(C)[C@H](N)C(=O)OCC(CO)OCn1cnc2c(=O)[nH]c(N)nc21.Cl (stereo partly drawn) [G-L-valinate hydrochloride, 2-(2-Amino-1,6-dihydro-6-oxo-purin-9-yl)methoxy-3-hydroxy-1-propanyl-L-valinate hydrochloride]
- ORAL BIOAVAILABILITY (F %) ([2]; rat, in vivo, 1440 min): 98.1%

Compound: CCC(=O)OCC(COC(=O)CC)OCn1cnc2c(=O)[nH]c(N)nc21 [G-bis(propionic acid) ester]
- more bioavailable than ganciclovir itself [5]: about 42%
- ORAL BIOAVAILABILITY (F %) ([2]; rat, in vivo, 1440 min): 17.7%
